Values after ≈ are worked out from the molar mass of the structure shown. Read-outs that look alike come from different tables or passages of the source.
Key:
M. avium = assay: MIC testing of CF isolates; type: cell-based; conditions: Mycobacterium avium
[1] = test system: Achromobacter spp. biofilm; assay: Activity against biofilms; type: cell-based; conditions: tested up to 250 μg/mL
Description: A dose response is also apparently associated with both compounds (FIG. 21).

Candida spp. = assay: Broth microdilution MIC (Example 11); type: cell-based, C. parapsilosis, C. albicans, C. glabrata, C. tropicalis
Candida albicans = assay: Antifungal broth microdilution (Example 13); type: cell-based; conditions: Candida albicans, 24 h, read-out: MIC0, C. albicans MMX 7445, FLU-R, VORI-R, complete inhibition
Candida krusei = assay: Antifungal broth microdilution (Example 13); type: cell-based; conditions: for MIC: Pichia kudriavzevii
[2] = test system: C. parapsilosis ATCC 22019; assay: Antifungal broth microdilution (Example 13), QC organism; type: cell-based, Candida parapsilosis; conditions: 24 hr, first of two values x/y (footnote b not given, presumably MIC2)
P. aeruginosa = assay: Broth microdilution MIC (Example 10); type: cell-based, Pseudomonas aeruginosa; conditions: initial MIC testing
[3] = test system: Burkholderia cepacia complex; type: cell-based, Burkholderia spp.; conditions: initial MIC testing
Klebsiella pneumoniae = assay: Broth microdilution MIC (Example 12); type: cell-based
[4] = type: in vivo, F344 rats; conditions: rat, inhalation
Method: Inhalation Exposure: The initial exposure of BisEDT (Bismuth-1,2-ethanedithiol) was formulated as a […] at 100 mg/mL in suspension in 0.5% Tween 80, 10 mM sodium phosphate, pH 7.4, in NaCl (adjusted to approximately 300 mOsm). Aerosols were generated with a commercial compressed air jet nebulizer, Pad LC Plus, operated with an inlet pressure of 20 psi. The aerosols were transitioned into a rodent nose-only inhalation exposure system. The exposure system was operated with an inlet air flow of −5.2 L/min and an exhaust air flow of −5 L/min.

[5] = test system: MucilAir fully differentiated human airway epithelium
[6] = test system: MucilAir fully differentiated human airway epithelium; remark: listed apart in the source
CYP = conditions: liver microsome (CYP) and hepatocyte
[7] = solid, 0.033 and 0.33 μg/cm^2, all time points

CC(S)C(C)S.[Bi] (stereo not shown) [BisBDT, bismuth-2,3-butanedithiol]
MIC (M. avium; strain AMT G193-13): > 16 mg/L | MIC (M. avium; strain MAC101): 1 mg/L | reduction in viable biofilm cells [1]: 5 log | MIC (Candida spp.; 24 h, C. albicans MMX 7039, Sensitive, incubation 24 hr): 2 mg/L | MIC (Candida spp.; 24 h, C. albicans MMX 7055, Sensitive, incubation 24 hr): 2 mg/L | MIC (Candida spp.; 24 h, C. glabrata MMX 7318, FLU^R, incubation 24 hr): 0.25 mg/L | MIC (Candida spp.; 24 h, C. glabrata miX 7086, FLU^R, incubation 24 hr): 0.5 mg/L | MIC (Candida spp.; 24 h, C. parapsilosis MMX 2323 (ATCC 22019), QC, incubation 24 hr): 0.5 mg/L | MIC (Candida spp.; 24 h, C. tropicalis MMX 7247, FLU^R, incubation 24 hr): 4 mg/L | MIC (Candida spp.; 24 h, C. tropicalis MMX 7248, FLU^R, incubation 24 hr): 4 mg/L | MIC (Candida spp.; 24 h, C. tropicalis MMX 7360, FLU^R, incubation 24 hr): 2 mg/L | MIC (Candida spp.; 48 h, C. albicans MMX 7039, Sensitive, incubation 48 hr): 2 mg/L | MIC (Candida spp.; 48 h, C. albicans MMX 7055, Sensitive, incubation 48 hr): 2 mg/L | MIC (Candida spp.; 48 h, C. glabrata MMX 7318, FLU^R, incubation 48 hr): 0.5 mg/L | MIC (Candida spp.; 48 h, C. glabrata miX 7086, FLU^R, incubation 48 hr): 1 mg/L | MIC (Candida spp.; 48 h, C. parapsilosis MMX 2323 (ATCC 22019), QC, incubation 48 hr): 1 mg/L | MIC (Candida spp.; 48 h, C. parapsilosis MMX 7370, FLU^R, incubation 48 hr): 0.5 mg/L | MIC (Candida spp.; 48 h, C. parapsilosis MMX 7555, FLU^R, incubation 48 hr): 0.5 mg/L | MIC (Candida spp.; 48 h, C. tropicalis MMX 7247, FLU^R, incubation 48 hr): 4 mg/L | MIC (Candida spp.; 48 h, C. tropicalis MMX 7248, FLU^R, incubation 48 hr): 8 mg/L | MIC (Candida spp.; 48 h, C. tropicalis MMX 7360, FLU^R, incubation 48 hr): 2 mg/L | MIC (Candida albicans): 2 mg/L | MIC 24 hr (Candida krusei; C. krusei ATCC 6258, first of two values x/y (footnote b not given, matches MIC2 of Table 107)): 0.5 mg/L | MIC 24 hr (Candida krusei; C. krusei ATCC 6258, second of two values x/y (footnote b not given, matches MIC0 of Table 107)): 1 mg/L | MIC 48 hr (Candida krusei; C. krusei ATCC 6258, 48 hr, first of two values x/y (footnote b not given, presumably MIC2)): 1 mg/L | MIC (Candida krusei; C. krusei MMX 7125, Susceptible, 50% inhibition, read-out: MIC2): 0.5 mg/L | MIC (Candida krusei; C. krusei MMX 7125, Susceptible, complete inhibition, read-out: MIC0): 1 mg/L | MIC (Candida krusei; C. krusei MMX 7141, Susceptible, 50% inhibition, read-out: MIC2): 1 mg/L | MIC (Candida krusei; C. krusei MMX 7141, Susceptible, complete inhibition, read-out: MIC0): 2 mg/L | MIC (Candida krusei; C. krusei MMX 7155, Susceptible, 50% inhibition, read-out: MIC2): 0.5 mg/L | MIC (Candida krusei; C. krusei MMX 7155, Susceptible, complete inhibition, read-out: MIC0): 1 mg/L | MIC (Candida krusei; C. krusei MMX 7563, Susceptible, 50% inhibition, read-out: MIC2): 0.5 mg/L | MIC (Candida krusei; C. krusei MMX 7563, Susceptible, complete inhibition, read-out: MIC0): 1 mg/L | MIC (Candida krusei; C. krusei MMX 9878, MICA-I, VORI-I, 50% inhibition, read-out: MIC2): 0.5 mg/L | MIC (Candida krusei; C. krusei MMX 9878, MICA-I, VORI-I, complete inhibition, read-out: MIC0): 1 mg/L | MIC (Candida krusei; […], complete inhibition, read-out: MIC0): 1 mg/L | MIC (Candida krusei; read-out: MIC2): 0.5 mg/L | MIC 24 hr [2]: 1 mg/L

C[C@@H](O)[C@H]1C(=O)N2C(C(=O)O)=C(S[C@@H]3CN[C@H](C(=O)N(C)C)C3)[C@H](C)[C@H]12 [MEM]
MIC (P. aeruginosa; P. aeruginosa isolate 103, QC strain): 1 mg/L (≈ 2.61 µM) | MIC (P. aeruginosa; P. aeruginosa isolate 1497 (TOB-R AMK-R, CIP-I, AZT-R, COL-R)): 0.06 mg/L (≈ 0.156 µM) | MIC (P. aeruginosa; P. aeruginosa isolate 1530 (TOB-R, AMK-R, CIP-R)): 0.5 mg/L (≈ 1.3 µM) | MIC (P. aeruginosa; P. aeruginosa isolate 1553 (TOB-R, AMK-R, CIP-R)): 0.5 mg/L (≈ 1.3 µM) | MIC (P. aeruginosa; P. aeruginosa isolate 6322 (MEM-R, TOB-R, AMK-R, CIP-R, AZT-R)): 16 mg/L (≈ 41.7 µM) | MIC (P. aeruginosa; P. aeruginosa isolate 6977 (MEM-I, TOB-R, CIP-R, AZT-I)): 4 mg/L (≈ 10.4 µM) | MIC (P. aeruginosa; P. aeruginosa isolate 7745 (MEM-R, CIP-R, AZT-R)): 16 mg/L (≈ 41.7 µM) | MIC (P. aeruginosa; P. aeruginosa isolate 7754 (MEM-R, TOB-R, CIP-R, AZT-I)): 32 mg/L (≈ 83.4 µM) | MIC (P. aeruginosa; P. aeruginosa isolate 7762 (MEM-I, CIP-I)): 4 mg/L (≈ 10.4 µM) | MIC (P. aeruginosa; P. aeruginosa isolate 7871 (MEM-R, AZT-I)): 8 mg/L (≈ 20.9 µM) | MIC (P. aeruginosa; P. aeruginosa isolate 7874): 1 mg/L (≈ 2.61 µM) | MIC (P. aeruginosa; P. aeruginosa isolate 7886 (MEM-R, CIP-R, AZT-R)): 32 mg/L (≈ 83.4 µM) | MIC (P. aeruginosa; P. aeruginosa isolate 8797 (MEM-R, TOB-R, AMK-R, CIP-R, AZT-R, COL-R)): 32 mg/L (≈ 83.4 µM) | MIC (P. aeruginosa; P. aeruginosa isolate 8798 (MEM-R, TOB-R, AMK-R, CIP-R, AZT-R, COL-R)): 64 mg/L (≈ 167 µM) | MIC (P. aeruginosa; P. aeruginosa isolate 9108 (CIP-R, AZT-I)): 0.5 mg/L (≈ 1.3 µM) | MIC ([3]; B. cenocepacia isolate 0548 (CIP-R)): 4 mg/L (≈ 10.4 µM) | MIC ([3]; B. cenocepacia isolate 0813 (CPI-I)): 2 mg/L (≈ 5.22 µM) | MIC ([3]; B. cenocepacia isolate 1631): 4 mg/L (≈ 10.4 µM) | MIC ([3]; B. cenocepacia isolate 1783): 4 mg/L (≈ 10.4 µM) | MIC ([3]; B. cenocepacia isolate 8555): 4 mg/L (≈ 10.4 µM) | MIC ([3]; B. cepacia isolate 0546): 4 mg/L (≈ 10.4 µM) | MIC ([3]; B. cepacia isolate 0547): 2 mg/L (≈ 5.22 µM) | MIC ([3]; B. cepacia isolate 1793): 4 mg/L (≈ 10.4 µM) | MIC ([3]; B. cepacia isolate 1794): 4 mg/L (≈ 10.4 µM) | MIC ([3]; B. cepacia isolate 9040): 4 mg/L (≈ 10.4 µM) | MIC ([3]; B. multivorans isolate 1580 (CIP-R)): 2 mg/L (≈ 5.22 µM) | MIC ([3]; B. multivorans isolate 1791): 4 mg/L (≈ 10.4 µM) | MIC ([3]; B. multivorans isolate 1795 (MEM-I, CIP-R)): 8 mg/L (≈ 20.9 µM) | MIC ([3]; B. multivorans isolate 5665 (CIP-I)): 2 mg/L (≈ 5.22 µM) | MIC ([3]; B. multivorans isolate 8952 (CIP-I)): 2 mg/L (≈ 5.22 µM) | MIC (Klebsiella pneumoniae; K. pneumoniae ATCC BAA-1705, ATCC QC organism (Table 102)): 8 mg/L (≈ 20.9 µM) | MIC (Klebsiella pneumoniae; K. pneumoniae ATCC BAA-1705, ESBL/KPC): 8 mg/L (≈ 20.9 µM) | MIC (Klebsiella pneumoniae; K. pneumoniae CDC 112, KPC): >8 mg/L | MIC (Klebsiella pneumoniae; K. pneumoniae CDC 113, ESBL/KPC): >8 mg/L | MIC (Klebsiella pneumoniae; K. pneumoniae CDC 115, ESBL/KPC): >8 mg/L | MIC (Klebsiella pneumoniae; K. pneumoniae CDC 120, ESBL/KPC): >8 mg/L | MIC (Klebsiella pneumoniae; K. pneumoniae CDC 126, ESBL/KPC): 4 mg/L (≈ 10.4 µM) | MIC (Klebsiella pneumoniae; K. pneumoniae CDC 129, ESBL/KPC): 8 mg/L (≈ 20.9 µM) | MIC (Klebsiella pneumoniae; K. pneumoniae CDC 135, ESBL/VIM): 1 mg/L (≈ 2.61 µM) | MIC (Klebsiella pneumoniae; K. pneumoniae CDC 138, ESBL/NDM): >8 mg/L | MIC (Klebsiella pneumoniae; K. pneumoniae CDC 158, ESBL/NDM/OXA): >8 mg/L | MIC (Klebsiella pneumoniae; K. pneumoniae MMX 9029, ESBL): 0.015 mg/L (≈ 0.0391 µM)

C1C[S][Bi]([S]CC[S][Bi]2[S]CC[S]2)[S]1 [BisEDT, Bismuth-1,2-ethanedithiol]
Mean BisEDT Conc, whole blood ([4]; dose 47 μg/kg, 8 hr): 114 ng/mL | Mean BisEDT Conc, whole blood ([4]; dose 47 μg/kg, 12 hr): 98 ng/mL | Mean BisEDT Conc, whole blood ([4]; dose 47 μg/kg, 24 hr): 282 ng/mL | Mean BisEDT Conc, whole blood ([4]; dose 47 μg/kg, 30 hr): 373 ng/mL | Mean BisEDT Conc, whole blood ([4]; dose 124 μg/kg, 8 hr): 247 ng/mL | Mean BisEDT Conc, whole blood ([4]; dose 124 μg/kg, 12 hr): 187 ng/mL | Mean BisEDT Conc, whole blood ([4]; dose 124 μg/kg, 24 hr): 571 ng/mL | Mean BisEDT Conc, whole blood ([4]; dose 124 μg/kg, 30 hr): 668 ng/mL | Mean BisEDT Conc, whole blood ([4]; dose 400 μg/kg, 8 hr): 1701 ng/mL | Mean BisEDT Conc, whole blood ([4]; dose 400 μg/kg, 12 hr): 1252 ng/mL | Mean BisEDT Conc, whole blood ([4]; dose 400 μg/kg, 24 hr): 2700 ng/mL | Mean BisEDT Conc, whole blood ([4]; dose 400 μg/kg, 30 hr): 2738 ng/mL | Mean BisEDT Conc, whole blood ([4]; dose 3000 μg/kg, 1 hr): 485 ng/mL | Mean BisEDT Conc, whole blood ([4]; dose 3000 μg/kg, 2 hr): 2504 ng/mL | Mean BisEDT Conc, whole blood ([4]; dose 3000 μg/kg, 8 hr): 6570 ng/mL | Mean BisEDT Conc, whole blood ([4]; dose 3000 μg/kg, 24 hr): 20525 ng/mL | LDH release ([5]; BisEDT in solution 0.001-30 μM, 1, 8, 24, 48 h): not altered | LDH release (cytotoxicity) ([5]; solid, 1 μg/cm^2, 8, 24 and 48 h): time- and dose-dependent cytotoxicity | LDH release ([5]; solid, 1 μg/cm^2, 1 hour): No significant effect | LDH release [5, 7]: No significant effect | TEER ([6]; BisEDT in solution 0.001-30 μM, all time points): didn't show significant effect | TEER ([6]; solid, 1 μg/cm^2, 8, 24 and 48H): Loss of tissue integrity | TEER ([6]; solid, 1 μg/cm^2, 1 hour): no significant effect | TEER [6, 7]: No significant effect | TEER ([6]; solid, all tested doses, 1 hour exposure): no significant effect | effect on liver cell metabolism (inhibition or induction of standard substrates) (CYP): no significant effect

Source: US20230124862A1, “BISMUTH THIOL COMPOUNDS AND COMPOSITIONS AND METHODS OF TREATING MICROBIAL CO-INFECTIONS” (Microbion Corporation, priority 2020, published 2023)
